From US6610877B1, “Aromatic carboxylic acid derivatives” (Hoffman-La Roche Inc., priority 1993, dated 2003)

What was measured:
[1] = test system: Hairless mice (HRS/J strain); assay: Repair of UV-B-caused skin damage in the hairless mouse; type: in vivo; conditions: three times a week, 10 weeks, Luna staining of elastin, total surface per 20 microscopic field
Description: Repair of UV-B-caused Skin Damage in the Hairless Mouse Hairless mice (HRS/J strain, Jackson Labs, aged 5-7 weeks at the beginning of the experiment) were irradiated three times a week with an arrangement of 8 Westinghouse irradiation lamps (FS40) which were placed about 20 cm above the animals. The radiation dose was controlled by a commercial phototherapeutic control device. The UV-B dose was chosen such that the dosage scarcely exceeded 0.06 J/cm^2, caused a minimal erythema, but no burning or scarring. After a total dose of about 3.5 J/cm^2 there resulted a significant elastosis which was evident from a histological report and which was confirmed by measuring the elastin using a radioimmunoassay for desmosin in the total skin. The desmosin content increased by two- to three-fold after 3.5 J/cm^2 UV-B irradiation. In order to make good the skin damage, the UV irradiation was interrupted and groups of animals were treated three times a week with different doses of compounds of formula I dissolved in acetone. These solutions were prepared freshly each week such that the dosage to be administered was present in […] of acetone and were applied topically to an area of about 10 cm^2 on the backs of the animals. A controlled group was treated only with acetone. After treatment for 10 weeks the animals were killed, skin preparations were prepared and the extent of the recovery was measured quantitatively by Luna staining of the elastin. In this experimental model the skin recovery is defined as the appearance of a normal dermis which extends from the epidermis to the layer of compressed elastin. The extent of the recovery was given by the width of this zone. The area of the zone on a standard length of the histological section was measured and the result was expressed as the total surface in mm^2 per 20 microscopic field.

Structure (SMILES)	melting point [°C]	other results
CCCCCc1cc2c(cc1/C=C/c1ccc(C(=O)O)cc1)C(C)(C)CCC2(C)C [Example 2, (E)-4-[2-(3-Pentyl-5,5,8,8-tetramethyl-5,6,7,8-tetrahydro-naphthalen-2-yl)vinyl]benzoic acid]	173 to 174	
CCCCc1cc2c(cc1/C=C/c1ccc(C(=O)O)cc1)C(C)(C)CCC2(C)C [Compound B, 4-[(E)-2-(3-Butyl-5,5,8,8-tetramethyl-5,6,7,8-tetrahydro-naphth-2-yl)vinyl]benzoic Acid]		Recovery Zone ([1]; 0.5 μg topically in acetone): 15.6 ± 2.74 mm^2 • 10^−3; Recovery Zone ([1]; 2 μg topically in acetone): 20.5 ± 7.17 mm^2 • 10^−3
CCCCCOc1cc2c(cc1/C=C/c1ccc(C(=O)O)cc1)C(C)(C)CCC2(C)C [Example 8, (E)-4-[2-(5,5,8,8-Tetramethyl-3-pentoxy-5,6,7,8-tetrahydro-naphthalen-2-yl)vinyl]benzoic acid]	148 to 149	
CCC#CCOc1cc2c(cc1/C=C/C=C/C(C)=C/C(=O)O)C(C)(C)CCC2(C)C [Example 21, (2E,4E,6E)-3-methyl-7-(3-pent-2-ynyloxy-5,5,8,8-tetramethyl-5,6,7,8-tetrahydro-naphthalen-2-yl)-hepta-2,4,6-trienoic acid]	208 to 209	
CCC#CCOc1cc2c(cc1/C=C/c1ccc(C(=O)O)cc1)C(C)(C)CCC2(C)C [Example 20, (E)-4-[2-(3-pent-2-ynyloxy-5,5,8,8-tetramethyl-5,6,7,8-tetrahydro-naphthalen-2-yl)-vinyl]-benzoic acid]	144 to 145	
CCCCCCc1cc2c(cc1/C=C/c1ccc(C(=O)O)cc1)CCCCC2(C)C [Example 13 (third compound), (E)-4-[2-(3-hexyl-5,5-dimethyl-6,7,8,9-tetrahydro-5H-benzocyclohepten-2-yl)vinyl]benzoic acid]	133 to 134	
CCCCCc1cc2c(cc1C#C/C=C/C(C)=C/C(=O)O)C(C)(C)CCC2(C)C [Example 17 (2E,4E), (2E,4E)-3-methyl-7-(5,5,8,8-tetramethyl-3-pentyl-5,6,7,8-tetrahydro-naphthalen-2-yl)-hepta-2,4-dien-6-ynoic acid]	155 to 156	
CCCCCCCCc1cc2c(cc1/C=C/c1ccc(C(=O)O)cc1)CCC(C)(C)CC2C (racemic) [Example 12, Rac-(E)-4-[2-(5,7,7-trimethyl-3-octyl-6,7,8,9-tetrahydro-5H-benzocyclohepten-2-yl)vinyl]benzoic acid]	182 to 183	
CCCCCCCCc1cc2c(cc1/C=C/c1ccc(C(=O)O)cc1)C(C)(C)CCC2(C)C [Compound E, p-[(E)-2-(3-Octyl-5,6,7,8-tetrahydro-5,5,8,8-tetramethyl-2-naphthyl)vinyl]benzoic Acid]		Recovery Zone ([1]; 0.5 μg topically in acetone): 7.48 ± 1.7 mm^2 • 10^−3; Recovery Zone ([1]; 2 μg topically in acetone): 4.70 ± 2.0 mm^2 • 10^−3; Recovery Zone ([1]; 10 μg topically in acetone): 22.2 ± 8.3 mm^2 • 10^−3
CCCCCCc1cc2c(cc1/C=C/C=C/C(C)=C/C(=O)O)C(C)(C)CCC2(C)C [Compound C, (all E)-7-(3-Hexyl-5,5,8,8-tetramethyl-5,6,7,8-tetrahydro-naphthalen-2-yl)-3-methyl-hepta-2,4,6-trienoic Acid]		Recovery Zone ([1]; 2 μg topically in acetone): 32.8 ± 6.72 mm^2 • 10^−3; Recovery Zone ([1]; 10 μg topically in acetone): 59.5 ± 6.71 mm^2 • 10^−3
CCCCCCCCc1cc2c(cc1/C=C/c1ccc(C(=O)O)cc1)CCC(C)(C)CC2 [Example 11, (E)-4-[2-(7,7-dimethyl-3-octyl-6,7,8,9-tetrahydro-5H-benzocyclohepten-2-yl)vinyl]benzoic acid]	179.5 to 180.5	
CCCCCC(=O)c1cc2c(cc1/C=C/c1ccc(C(=O)O)cc1)C(C)(C)CCC2(C)C [Example 16, (E)-4-[2-(3-hexanoyl-5,5,8,8-tetramethyl-5,6,7,8-tetrahydro-naphthalen-2-yl)vinyl]benzoic acid]	118 to 119	
C=CCOc1cc2c(cc1/C=C/c1ccc(C(=O)O)cc1)C(C)(C)CCC2(C)C [Example 22 (allyloxy), (E)-4-[2-(3-allyloxy-5,5,8,8-tetramethyl-5,6,7,8-tetrahydro-naphthalen-2-yl)-vinyl]-benzoic acid]	191 to 192	
CCCCCCCOc1cc2c(cc1/C=C/c1ccc(C(=O)O)cc1)[C@]1(C)CCC[C@@]2(C)[C@@H]1O (racemic) [Example 14, (E)-4-[2-[(5RS,9SR,10RS)-3-heptyloxy-10-hydroxy-5,9-dimethyl-6,7,8,9-tetrahydro-5,9-methano-5H-benzocyclohepten-2-yl]vinyl]benzoic acid]	89 to 90	
CCCCCc1cc2c(cc1/C=C/C=C/C(C)=C/C(=O)O)C(C)(C)CCC2(C)C [Example 5, (2E,4E,6E)-7-(3-Pentyl-5,5,8,8-tetramethyl-5,6,7,8-tetrahydro-naphthalen-2-yl)-3-methyl-hepta-2,4,6-trienoic acid]	164 to 166	
CCCCCOc1cc2c(cc1/C=C/C=C/C(C)=C/C(=O)O)C(C)(C)CCC2(C)C [Example 10 (2E isomer), (2E,4E,6E)-3-methyl-7-(5,5,8,8-tetramethyl-3-pentoxy-5,6,7,8-tetrahydro-naphthalen-2-yl)-hepta-2,4,6-trienoic acid]	162 to 163	
CCCCCCC1C2=C(CC1/C=C/c1ccc(C(=O)O)cc1)C(C)(C)CC=C2 (stereo not shown) [Example 13 (second compound), (E)-4-[2-(3-Hexyl-7,7-dimethyl-indan-2-yl)vinyl]benzoic acid]	149 to 150	
CCCCOc1cc2c(cc1/C=C/C=C/C(C)=C/C(=O)O)[C@]1(C)CCC[C@@]2(C)[C@@H]1O (racemic) [Example 19, (2E,4E,6E)-(5RS,9SR,10RS)-7-(3-butoxy-10-hydroxy-5,9-dimethyl-6,7,8,9-tetrahydro-5,9-methano-5H-benzocyclohepten-2-yl)-3-methyl-hepta-2,4,6-trienoic acid]	176 to 178	
CCc1cc2c(cc1/C=C/c1ccc(C(=O)O)cc1)C(C)(C)CCC2(C)C [Compound D, p-[(E)-2-(3-Ethyl-5,6,7,8-tetrahydro-5,5,8,8-tetramethyl-2-naphthyl)vinyl]benzoic Acid]		Recovery Zone ([1]; 0.5 μg topically in acetone): 15.5 ± 4.9 mm^2 • 10^−3; Recovery Zone ([1]; 2 μg topically in acetone): 19.1 ± 4.9 mm^2 • 10^−3; Recovery Zone ([1]; 10 μg topically in acetone): 46.5 ± 6.9 mm^2 • 10^−3
CCCCCCc1cc2c(cc1/C=C/c1ccc(C(=O)O)cc1)C(C)(C)CCC2(C)C [Compound A, p-[(E)-2-(3-Hexyl-5,6,7,8-tetrahydro-5,5,8,8-tetramethyl-2-naphthyl)vinyl]benzoic Acid]	134 to 136	Recovery Zone ([1]; 0.05 μg topically in acetone): 9.8 ± 2.8 mm^2 • 10^−3; Recovery Zone ([1]; 2 μg topically in acetone): 27.2 ± 2.6 mm^2 • 10^−3; Recovery Zone ([1]; 10 μg topically in acetone): 35.9 ± 7.5 mm^2 • 10^−3
C/C=C/COc1cc2c(cc1/C=C/c1ccc(C(=O)O)cc1)C(C)(C)CCC2(C)C [Example 22 (but-2-enyloxy), 4-[(E)-2-((E)-3-but-2-enyloxy-5,5,8,8-tetramethyl-5,6,7,8-tetrahydro-naphthalen-2-yl)-vinyl]-benzoic acid]	178 to 180	
CCCCc1cc2c(cc1/C=C/c1ccc(C(=O)O)cc1)C(C)(C)CCCC2 [Example 13 (fourth compound), (E)-4-[2-(3-butyl-9,9-dimethyl-6,7,8,9-tetrahydro-5H-benzocyclohepten-2-yl)vinyl]benzoic acid]	81 to 83	
CCCCc1cc2c(cc1/C=C/c1ccc(C(=O)O)cc1)CCCCC2(C)C [Example 13, (E)-4-[2-(3-Butyl-5,5-dimethyl-6,7,8,9-tetrahydro-5H-benzocyclohepten-2-yl)vinyl]benzoic acid]	184 to 186	
CCCCCc1cc2c(cc1/C=C/C=C/C(C)=C\C(=O)O)C(C)(C)CCC2(C)C [Example 6, (2Z,4E,6E)-7-(3-Pentyl-5,5,8,8-tetramethyl-5,6,7,8-tetrahydro-naphthalen-2-yl)-3-methyl-hepta-2,4,6-trienoic acid]	170 to 174	
C=CCOc1cc2c(cc1/C=C/C=C/C(C)=C/C(=O)O)C(C)(C)CCC2(C)C [Example 23 (allyloxy), (2E,4E,6E)-7-(3-allyloxy-5,5,8,8-tetramethyl-5,6,7,8-tetrahydro-naphthalen-2-yl)-3-methyl-hepta-2,4,6-trienoic acid]	193 to 194	
